Data from US20070128217A1 (priority 2003, published 2007).

Assays:
[1] = system: control sera (pooled serum of ten healthy LUMC hospital workers; commercial negative donor pooled serum from the Dutch bloodbank); assay type: binding, human; set-up: Binding of Control serum LUMC to linear peptides / Binding of Control serum Blood-bank to linear peptides / Binding of Control serum LUMC to looped peptides / Binding of Control Serum Blood-Bank to Looped peptides / Binding of Control serum LUMC to linear peptides of the protein M of SARS-CoV Urbani / Binding of Control serum Blood-bank to linear peptides of the protein M of SARS-CoV Urbani / Binding of Control serum LUMC to looped peptides of the protein M of SARS-CoV Urbani / Binding of Control Serum Blood-Bank to Looped peptides of the protein M of SARS-CoV Urbani: unit not given here
[2] = system: antibodies in sera from SARS patients (sera 1a, 1b, 2, 6, 37, 62, London, SARS-yellow, SARS-green); assay type: binding, human; set-up: Binding of serum 6 to linear peptides of protein X1 of SARS-CoV Urbani / Binding of serum 37 to linear peptides of protein X1 of SARS-CoV Urbani / Binding of serum 6 to looped/cyclic peptide (PEPSCAN-ELISA) / Binding of serum 37 to looped/cyclic peptide (PEPSCAN-ELISA) / Binding of serum 37 to looped/cyclic peptides of protein X1 of SARS-CoV Urbani / Binding of serum 6 to linear peptides of protein X2 / Binding of serum 37 to linear peptides of protein X2 / Binding of serum 37 to looped/cyclic peptides of protein X2 of SARS-CoV Urbani / Binding of serum 6 to linear peptides of protein M of SARS-CoV Urbani / Binding of serum 37 to linear peptides of protein M of SARS-CoV Urbani / Binding of serum 6 to looped/cyclic peptides of protein M of SARS-CoV Urbani / Binding of serum 37 to looped/cyclic peptides of protein M of SARS-CoV Urbani / Binding of serum 6 to linear peptides of protein X3 of SARS-CoV Urbani / Binding of serum 37 to linear peptides of protein X3 of SARS-CoV Urbani / Binding of serum 37 to looped/cyclic peptides of protein X3 of SARS-CoV Urbani / Binding of serum 6 to linear peptides of protein X4 of SARS-CoV Urbani / Binding of serum 37 to linear peptides of protein X4 of SARS-CoV Urbani / Binding of serum 37 to looped/cyclic peptides of protein X4 of SARS-CoV Urbani / Binding of serum 6 to linear peptides of protein X5 of SARS-CoV Urbani / Binding of serum 37 to linear peptides of protein X5 of SARS-CoV Urbani / Binding of serum 37 to looped/cyclic peptides of protein X5 of SARS-CoV Urbani / Binding of serum 6 to linear peptides of protein N of SARS-CoV Urbani / Binding of serum 37 to linear peptides of protein N of SARS-CoV Urbani / Binding of serum 6 to linear peptide (PEPSCAN-ELISA) / Binding of serum 1a to looped/cyclic peptides of protein N of SARS-CoV Urbani / Binding of serum 1b to looped/cyclic peptides of protein N of SARS-CoV Urbani / Binding of serum 2 to looped/cyclic peptides of protein N of SARS-CoV Urbani / Binding of serum 6 to looped/cyclic peptides of protein N of SARS-CoV Urbani / Binding of serum 37 to looped/cyclic peptides of protein N of SARS-CoV Urbani / Binding of serum 62 to looped/cyclic peptides of protein N of SARS-CoV Urbani / Binding of serum London to looped/cyclic peptides of protein N of SARS-CoV Urbani / Binding of serum SARS-green to looped/cyclic peptides of protein N of SARS-CoV Urbani: unit not given here
[3] = system: rabbit serum obtained by immunizing a rabbit with the SARS-CoV strain Frankfurt 1; assay type: binding; set-up: Binding of a rabbit serum to linear peptides / Binding of a rabbit serum to looped peptides / Rabbit serum linear peptides / Rabbit serum looped peptides / Binding of a rabbit serum to linear peptides of protein N of SARS-CoV Urbani (Rabbit serum linear peptides) / Binding of a rabbit serum to looped/cyclic peptides of protein N of SARS-CoV Urbani (Rabbit serum looped peptides): unit not given here

## FMMSRRRLLACLCKH
[1]
  Binding of Control Serum Blood-Bank to Looped peptides: 0.6
  Binding of Control serum Blood-bank to linear peptides: 0.7
  Binding of Control serum LUMC to linear peptides: 0.4
  Binding of Control serum LUMC to looped peptides: 0.5
[2]
  Binding of serum 1a to linear peptides of protein X2: 0.7
  Binding of serum 1a to looped/cyclic peptides of protein X2 of SARS-CoV Urbani: 0.4
  Binding of serum 1b to linear peptides of protein X2: 0.5
  Binding of serum 1b to looped/cyclic peptides of protein X2 of SARS-CoV Urbani: 0.4
  Binding of serum 2 to linear peptides of protein X2: 0.5
  Binding of serum 2 to looped/cyclic peptides of protein X2 of SARS-CoV Urbani: 0.3
  Binding of serum 6 to linear peptides of protein X2: 0.7
  Binding of serum 6 to looped/cyclic peptides of protein X2 of SARS-CoV Urbani: 0.5
  Binding of serum 37 to linear peptides of protein X2: 0.6
  Binding of serum 37 to looped/cyclic peptides of protein X2 of SARS-CoV Urbani: 0.3
  Binding of serum 62 to linear peptides of protein X2: 0.6
  Binding of serum 62 to looped/cyclic peptides of protein X2 of SARS-CoV Urbani: 0.4
  Binding of serum London to linear peptides of protein X2: 0.7
  Binding of serum London to looped/cyclic peptides of protein X2 of SARS-CoV Urbani: 1.2
  Binding of serum SARS-green to linear peptides of protein X2: 0.5
  Binding of serum SARS-green to looped/cyclic peptides of protein X2 of SARS-CoV Urbani: 0.3
  Binding of serum SARS-yellow to linear peptides of protein X2: 0.5
  Binding of serum SARS-yellow to looped/cyclic peptides of protein X2 of SARS-CoV Urbani: 0.5
[3]
  Binding of a rabbit serum to linear peptides: 0.4
  Binding of a rabbit serum to looped peptides: 0.6

## TVYHITVSQIQLSLL
[1]
  Binding of Control Serum Blood-Bank to Looped peptides: 0.6
  Binding of Control serum Blood-bank to linear peptides: 0.5
  Binding of Control serum LUMC to linear peptides: 0.5
  Binding of Control serum LUMC to looped peptides: 0.5
[2]
  Binding of serum 1a to linear peptides of protein X2: 0.6
  Binding of serum 1a to looped/cyclic peptides of protein X2 of SARS-CoV Urbani: 0.4
  Binding of serum 1b to linear peptides of protein X2: 0.5
  Binding of serum 1b to looped/cyclic peptides of protein X2 of SARS-CoV Urbani: 0.4
  Binding of serum 2 to linear peptides of protein X2: 0.5
  Binding of serum 2 to looped/cyclic peptides of protein X2 of SARS-CoV Urbani: 0.3
  Binding of serum 6 to linear peptides of protein X2: 0.4
  Binding of serum 6 to looped/cyclic peptides of protein X2 of SARS-CoV Urbani: 0.2
  Binding of serum 37 to linear peptides of protein X2: 0.6
  Binding of serum 37 to looped/cyclic peptides of protein X2 of SARS-CoV Urbani: 0.4
  Binding of serum 62 to linear peptides of protein X2: 0.4
  Binding of serum 62 to looped/cyclic peptides of protein X2 of SARS-CoV Urbani: 0.5
  Binding of serum London to linear peptides of protein X2: 0.4
  Binding of serum London to looped/cyclic peptides of protein X2 of SARS-CoV Urbani: 0.2
  Binding of serum SARS-green to linear peptides of protein X2: 0.1
  Binding of serum SARS-green to looped/cyclic peptides of protein X2 of SARS-CoV Urbani: 0.2
  Binding of serum SARS-yellow to linear peptides of protein X2: 0.7
  Binding of serum SARS-yellow to looped/cyclic peptides of protein X2 of SARS-CoV Urbani: 0.3
[3]
  Binding of a rabbit serum to linear peptides: 0.7
  Binding of a rabbit serum to looped peptides: 0.3

## DPAGGALIARCWYLH
[1]
  Binding of Control Serum Blood-Bank to Looped peptides: 0.8
  Binding of Control serum Blood-bank to linear peptides: 0.7
  Binding of Control serum LUMC to linear peptides: 0.3
  Binding of Control serum LUMC to looped peptides: 0.6
[2]
  Binding of serum 1a to linear peptides of protein X5 of SARS-CoV Urbani: 0.7
  Binding of serum 1a to looped/cyclic peptides of protein X5 of SARS-CoV Urbani: 0.8
  Binding of serum 1b to linear peptides of protein X5 of SARS-CoV Urbani: 0.6
  Binding of serum 1b to looped/cyclic peptides of protein X5 of SARS-CoV Urbani: 0.5
  Binding of serum 2 to linear peptides of protein X5 of SARS-CoV Urbani: 0.4
  Binding of serum 2 to looped/cyclic peptides of protein X5 of SARS-CoV Urbani: 0.5
  Binding of serum 6 to linear peptides of protein X5 of SARS-CoV Urbani: 0.5
  Binding of serum 6 to looped/cyclic peptides of protein X5 of SARS-CoV Urbani: 0.4
  Binding of serum 37 to linear peptides of protein X5 of SARS-CoV Urbani: 0.8
  Binding of serum 37 to looped/cyclic peptides of protein X5 of SARS-CoV Urbani: 0.7
  Binding of serum 62 to linear peptides of protein X5 of SARS-CoV Urbani: 0.7
  Binding of serum 62 to looped/cyclic peptides of protein X5 of SARS-CoV Urbani: 0.6
  Binding of serum London to linear peptides of protein X5 of SARS-CoV Urbani: 0.6
  Binding of serum London to looped/cyclic peptides of protein X5 of SARS-CoV Urbani: 0.2
  Binding of serum SARS-green to linear peptides of protein X5 of SARS-CoV Urbani: 0.6
  Binding of serum SARS-green to looped/cyclic peptides of protein X5 of SARS-CoV Urbani: 0.6
  Binding of serum SARS-yellow to linear peptides of protein X5 of SARS-CoV Urbani: 0.2
  Binding of serum SARS-yellow to looped/cyclic peptides of protein X5 of SARS-CoV Urbani: 0.3
[3]
  Rabbit serum linear peptides: 0.3
  Rabbit serum looped peptides: 0.5

## AYNRYRIGNYKLNTD
[1]
  Binding of Control Serum Blood-Bank to Looped peptides of the protein M of SARS-CoV Urbani: 0.6
  Binding of Control serum Blood-bank to linear peptides of the protein M of SARS-CoV Urbani: 0.6
  Binding of Control serum LUMC to linear peptides of the protein M of SARS-CoV Urbani: 0.3
  Binding of Control serum LUMC to looped peptides of the protein M of SARS-CoV Urbani: 0.7
[2]
  Binding of serum 1a to linear peptides of protein M of SARS-CoV Urbani: 0.7
  Binding of serum 1a to looped/cyclic peptides of protein M of SARS-CoV Urbani: 0.8
  Binding of serum 1b to linear peptides of protein M of SARS-CoV Urbani: 0.2
  Binding of serum 1b to looped/cyclic peptides of protein M of SARS-CoV Urbani: 0.7
  Binding of serum 2 to linear peptides of protein M of SARS-CoV Urbani: 0.3
  Binding of serum 2 to looped/cyclic peptides of protein M of SARS-CoV Urbani: 0.5
  Binding of serum 6 to linear peptides of protein M of SARS-CoV Urbani: 0.4
  Binding of serum 6 to looped/cyclic peptides of protein M of SARS-CoV Urbani: 1.0
  Binding of serum 37 to linear peptides of protein M of SARS-CoV Urbani: 0.5
  Binding of serum 37 to looped/cyclic peptides of protein M of SARS-CoV Urbani: 0.6
  Binding of serum 62 to linear peptides of protein M of SARS-CoV Urbani: 0.7
  Binding of serum 62 to looped/cyclic peptides of protein M of SARS-CoV Urbani: 0.6
  Binding of serum London to linear peptides of protein M of SARS-CoV Urbani: 0.5
  Binding of serum London to looped/cyclic peptides of protein M of SARS-CoV Urbani: 0.4
  Binding of serum SARS-green to linear peptides of protein M of SARS-CoV Urbani: 0.2
  Binding of serum SARS-green to looped/cyclic peptides of protein M of SARS-CoV Urbani: 0.2
  Binding of serum SARS-yellow to linear peptides of protein M of SARS-CoV Urbani: 0.0
  Binding of serum SARS-yellow to looped/cyclic peptides of protein M of SARS-CoV Urbani: 0.6
[3]
  Rabbit serum linear peptides: 0.3
  Rabbit serum looped peptides: 0.3

## VLLKEPCPSGTYEGN
[1]
  Binding of Control Serum Blood-Bank to Looped peptides: 0.9
  Binding of Control serum Blood-bank to linear peptides: 0.8
  Binding of Control serum LUMC to linear peptides: 0.7
  Binding of Control serum LUMC to looped peptides: 0.8
[2]
  Binding of serum 1a to linear peptides of protein X4 of SARS-CoV Urbani: 0.8
  Binding of serum 1a to looped/cyclic peptides of protein X4 of SARS-CoV Urbani: 0.8
  Binding of serum 1b to linear peptides of protein X4 of SARS-CoV Urbani: 0.7
  Binding of serum 1b to looped/cyclic peptides of protein X4 of SARS-CoV Urbani: 0.7
  Binding of serum 2 to linear peptides of protein X4 of SARS-CoV Urbani: 0.4
  Binding of serum 2 to looped/cyclic peptides of protein X4 of SARS-CoV Urbani: 0.6
  Binding of serum 6 to linear peptides of protein X4 of SARS-CoV Urbani: 0.7
  Binding of serum 6 to looped/cyclic peptides of protein X4 of SARS-CoV Urbani: 0.7
  Binding of serum 37 to linear peptides of protein X4 of SARS-CoV Urbani: 0.7
  Binding of serum 37 to looped/cyclic peptides of protein X4 of SARS-CoV Urbani: 0.8
  Binding of serum 62 to linear peptides of protein X4 of SARS-CoV Urbani: 0.8
  Binding of serum 62 to looped/cyclic peptides of protein X4 of SARS-CoV Urbani: 0.7
  Binding of serum London to linear peptides of protein X4 of SARS-CoV Urbani: 0.8
  Binding of serum London to looped/cyclic peptides of protein X4 of SARS-CoV Urbani: 0.3
  Binding of serum SARS-green to linear peptides of protein X4 of SARS-CoV Urbani: 0.6
  Binding of serum SARS-green to looped/cyclic peptides of protein X4 of SARS-CoV Urbani: 0.5
  Binding of serum SARS-yellow to linear peptides of protein X4 of SARS-CoV Urbani: 0.1
  Binding of serum SARS-yellow to looped/cyclic peptides of protein X4 of SARS-CoV Urbani: 0.4
[3]
  Rabbit serum linear peptides: 0.4
  Rabbit serum looped peptides: 0.3
